In publication PMC9935382, “Sorting nexin-dependent therapeutic targeting of oncogenic epidermal growth factor receptor” (Cancer Gene Therapy, 2022):
“Also recorded” adds a separate entry of the source.

Legend:
MDA-MB-231 cells = test: MTT cell viability, MDA-MB-231; type: cell-based; conditions: 3 days
Procedure: (§1) 2 × 10^3 cells were plated per well in a 96 well plate and left to adhere overnight. The following day, drug treatments were started and continued for 3 days. To measure the viability of the remaining cell population, 10% 3-(4,5-dimethylthiazol-2-yl)-2,5-diphenyltetrazolium (MTT) in media was added and incubated for 2 hours and conversion of MTT to formazan at 540 nm using a biotech Synergy LX plate reader.
(§2) A–G Cells were plated in a 96-well plate at 2000 cells per well. […] Cell viability was then measured with an MTT assay, viability of treated cells were compared with the vehicle control. H MDA-MB-468 cells were plated and incubated+/− IPTG for 2 days prior to drug treatment to induce expression of an EGFR-targeted shRNA.

T47D cells = test: MTT cell viability, T47D; type: cell-based; conditions: 3 days, ER+ breast cancer line
Procedure: as §1, §2

H1975 cells = test: MTT cell viability, H1975; type: cell-based; conditions: EGFR driver mutation T790M, 3 days
Procedure: as §1, §2

PARP = PARP cleavage in tumor lysates (immunoblot); type: in vivo, mouse; conditions: tumor lysates at sacrifice; 10 μg/g IV 3X/week; vs cPTD4
Procedure: (§3) Lysates were prepared as described, protein concentrations determined by BCA assay (Pierce) and resolved via standard SDS-PAGE [18]. Gels were transferred to either PVDF (Immobilon P or Immobilon FL) membrane and probed with the indicated antibodies and analyzed by either HRP-linked secondaries (Pierce) or IRDye secondaries (Li-Cor), followed by development in Dura Signal (Pierce) or IR (Licor).
The transgenic mouse line WAP-TGFα (The Jackson Laboratory; Tg(WapTgfa)215Bri) were back crossed to C57BL/6 J background (N8). WAP-TGFα heterozygous males were bred with C57BL/6 J females to generate study animals and offspring were genotyped using primers against the WAP-TGFα transgene. WAP-TGFα heterozygous females were housed continuously with C57Bl/6 J males to induce pregnancy, resulting in transgene expression. […] To ensure randomized treatment arms we added mice to alternating treatment arms as they developed tumors, starting with the control cPTD4 arm. When a second mouse from the same litter developed a tumor, that animal was added to the opposite arm from its litter mate. The researchers were not blinded to the treatment arms. […] Once entered, mice were weighed, tumors measured, and injections given intravenously at 10 μg/g body weight 3x/week for 4 weeks. […]

[1] = system: mammary fat pad and tumors of WAP-TGFα mice; test: Histopathology (H+E) of WAP-TGFα mouse tissues; type: in vivo; conditions: for Tumor pathology: tumor site in value
Excerpt: The transgenic mouse line WAP-TGFα (The Jackson Laboratory; Tg(WapTgfa)215Bri) were back crossed to C57BL/6 J background (N8). WAP-TGFα heterozygous males were bred with C57BL/6 J females to generate study animals and offspring were genotyped using primers against the WAP-TGFα transgene. WAP-TGFα heterozygous females were housed continuously with C57Bl/6 J males to induce pregnancy, resulting in transgene expression. […] To ensure randomized treatment arms we added mice to alternating treatment arms as they developed tumors, starting with the control cPTD4 arm. When a second mouse from the same litter developed a tumor, that animal was added to the opposite arm from its litter mate. The researchers were not blinded to the treatment arms. […] Once entered, mice were weighed, tumors measured, and injections given intravenously at 10 μg/g body weight 3x/week for 4 weeks. […] Upon sacrifice, all tumors were collected and fixed in 10% formalin; a portion of each tumor was homogenized in tissue lysis buffer to form tissue protein lysates. Tissues were paraffin-embedded and sectioned by the Tissue Acquisition and Cell Molecular Analysis Shared Resource at the University of Arizona Cancer Center. The University of Arizona IACUC committee performs oversite of animal experimental protocols with coordination from a veterinarian in compliance with AAALAC.
Mice were bred continuously to induce transgene expression and palpated weekly for tumor formation. […] A Changes in tumor size from entry into study until end of study are shown for each individual tumor, (*) indicate tumors that entered the study at size greater than 500 mm^3, all other tumors entered the study at ~100 mm^3. B a Kaplan-Meier survival curve was generated showing when mice were sacrificed by either reaching tumor burden (2000 mm^3) or the end of the study (p = 0.0002). C Upon sacrifice tumors were harvested and fixed in 10% formalin and embedded in paraffin. FFPE blocks were sectioned at […] and stained with hematoxylin and eosin and imaged at 20x. D Protein lysates were generated from tumors upon the sacrifice and probed for the indicated proteins.
Supplementary Figure 3. Upon sacrifice, tissues were harvested and fixed in 10% formalin. Tissues were embedded, sectioned, and stained with H+E by the Tissue Acquisition and Cell Molecular Analysis Shared Resource (TACMASR) at the University of Arizona Cancer Center. H+E slides were then sent to the UC Davis pathology lab for pathological analysis.

[2] = system: nuclear EGFR in MDA-MB-468 cells; test: Nuclear EGFR by subcellular fractionation; type: cell-based; conditions: serum starved, 20 ng/mL EGF and peptide, 2 h; subcellular fractionation and immunoblot
Procedure: Cells were trypsinized and washed with PBS, followed by centrifugation at 100 g (4 °C) for 5 minutes. The cell pellet was resuspended in ice-cold cytosolic fraction buffer (150 mM NaCl, 50 mM HEPES pH 7.4, 25 ug/mL digitonin, with Complete protease inhibitors (Roche) and phosphatase inhibitors (2.0 mM sodium orthovanadate, 10.0 μM ammonium molybdate and 10.0 mM sodium fluoride) and tumbled at 4 °C for 10 minutes, followed by centrifuged at 2000 g, 4 °C for 10 minutes and the cytosolic fraction transferred retained for analysis as the cytosolic fraction. The pellet was then washed twice in ice-cold PBS, resuspended in membrane fraction buffer (150 mM NaCl, 50 mM HEPES pH 7.4, 1% NP-40, with protease and phosphatase inhibitors) and incubated on ice for 30 minutes. […]
as §3, with “(Licor). […]” for “(Licor).”
(§4) Cells were then fractionated and verified by HSP90 cytosolic protein, Bap31 membrane protein, or HDAC nuclear protein. […] After the second week, the number of secondary mammospheres were counted.

BT20 cells = test: BT20 mammosphere formation; type: cell-based
Procedure: 20,000 BT20 cells were suspended in mammosphere media (15 mL Mammocult media supplemented with 1.7 mL Proliferation supplement, 1.5 μL hydrocortisone, 30 μL heparin, and 150μL penicillin/streptomycin) and plated onto a low adhesion 6-well plate. After one week the number of spheres per well were counted. Cells from selected wells were then dissociated in trypsin EDTA and plated with fresh mammosphere media to develop secondary mammospheres.
as §4
These spheres were then disassociated and re-plated to form secondary mammospheres.

CC[C@H](C)[C@H](NC(=O)[C@@H](NC(=O)[C@H](Cc1c[nH]cn1)NC(=O)[C@H](CC(N)=O)NC(=O)[C@H](CCCCN)NC(=O)[C@H](C)NC(=O)[C@H](CCCNC(=N)N)NC(=O)[C@H](C)NC(=O)[C@H](CCC(N)=O)NC(=O)[C@H](CCCNC(=N)N)NC(=O)[C@H](C)NC(=O)[C@H](C)NC(=O)[C@H](C)NC(=O)[C@H](CCCNC(=N)N)NC(=O)[C@H](C)NC(=O)[C@H](Cc1ccc(O)cc1)NC(C)=O)C(C)C)C(=O)N[C@@H](CCCCN)C(=O)N[C@@H](Cc1ccc(O)cc1)C(=O)N[C@@H](CC(C)C)C(=O)N[C@@H](CCC(=O)O)C(=O)N[C@H](C(=O)N[C@@H](CC(C)C)C(=O)N[C@@H](CC(C)C)C(=O)N[C@@H](Cc1ccc(O)cc1)C(=O)N[C@@H](CO)C(=O)N[C@@H](CCC(N)=O)C(=O)N[C@@H](CCC(N)=O)C(=O)N[C@@H](CCC(N)=O)C(=O)N[C@@H](CC(C)C)C(=O)N[C@@H](C)C(=O)N[C@@H](CCCCN)C(=O)N[C@@H](Cc1ccc(O)cc1)C(=O)N[C@@H](Cc1c[nH]c2ccccc12)C(=O)N[C@@H](CCC(=O)O)C(=O)N[C@@H](C)C(=O)N[C@@H](Cc1ccccc1)C(=O)N[C@@H](CC(C)C)C(N)=O)[C@@H](C)O [cSNX1.3]
sensitivity (cell viability) (MDA-MB-231 cells): sensitive | sensitivity (cell viability) (T47D cells): sensitive | effect on cell viability (H1975 cells): minimal effect | PARP cleavage in remaining tumors (PARP): increased PARP cleavage; also recorded: increase in cleaved PARP | Fat Pad pathology ([1]; mouse 6.13.7 (cSNX1.3)): Mammary adenomatous to lobular (atypical) hyperplasia; In situ mammary adenocarcinoma | Tumor pathology ([1]; mouse 6.13.7 (cSNX1.3)): (R2) Mammary adenocarcinoma (cystic) | Fat Pad pathology ([1]; mouse 6.4.L (cSNX1.3)): Mammary adenomatous to lobular (atypical) hyperplasia; In situ mammary adenocarcinoma; Focal granulomatous mastitis | Tumor pathology ([1]; mouse 6.4.L (cSNX1.3)): (L4) Mammary adenomatous to lobular (atypical) hyperplasia; Adenoma; In situ mammary adenocarcinoma; also recorded: (R4) Mammary adenomatous to lobular (atypical) hyperplasia; Cystic ectasia | Fat Pad pathology ([1]; mouse 6.9.LR (cSNX1.3)): Mammary adenomatous to lobular (atypical) hyperplasia; In situ mammary adenocarcinoma | Tumor pathology ([1]; mouse 6.9.LR (cSNX1.3)): (L4) Mixed malignant tumor (fibrous component) | Fat Pad pathology ([1]; mouse 7.1.9 (cSNX1.3)): Mammary adenomatous to lobular (atypical) hyperplasia; In situ cystic (small) mammary adenocarcinoma | Tumor pathology ([1]; mouse 7.1.9 (cSNX1.3)): (L4) Mammary adenomatous to lobular (atypical) hyperplasia; also recorded: (R4) Mammary adenocarcinoma | nuclear-localized EGFR [2]: inhibits the nuclear localization of EGFR; also recorded: loss of nuclear-localized EGFR | primary mammosphere formation (BT20 cells; 1 week treatment, low adhesion plate): no mammospheres were formed | secondary mammosphere formation, treated in the first week (BT20 cells; cSNX1.3 in first week, then cPTD4 or vehicle in second week): reduction in sphere formation | secondary mammosphere formation, treated in the second week (BT20 cells; treated during second week): no mammosphere formation
